Data set [1] in a line: Human liver microsomal stability assay. It counts as in vitro ADME. The conditions noted are these: both sexes, pH 7.4; pooled human liver microsomes 0.5 mg/mL, 3 μM compound, NADPH, 45 minute incubation. The procedure:
Initial screening of candidate compounds was performed using in vitro assays to determine potency, metabolic stability and solubility in biologically relevant fluids. Potency was assessed using a viability assay based on the survival of the J774 macrophage cell line. […] Like osteoclasts, J774 macrophages are dependent on continued NFκB activation for survival, thereby providing a valuable screen for compounds with anti-inflammatory activity. Metabolic stability was measured by determining the rate of disappearance of compound in the presence of human liver microsomal preparations, as quantified by LC-MS/MS. Solubility was measured by equilibration of the compound in fasted state simulated intestinal fluid (FaSSIF) and quantified by HPLC.
Metabolic stability of APSAC derivatives was measured by determination of the rate of compound disappearance when incubated in the presence of human liver microsomes. Liver microsomes are prepared from the endoplasmic reticulum of hepatocytes and are the primary source of the most important enzymes (cytochrome P450) involved in drug metabolism. Study of drug stability in the presence of liver microsomes is accepted as a valuable model permitting rapid prediction of in vivo drug stability.
Human liver microsomes were obtained from a commercial source. Test compounds (3 μM) were incubated with pooled liver microsomes (male and female). Samples were incubated for a 45 minute period and removed at 5 time points and test compounds were analysed by LC-MS/MS.
The final incubation volume was 25 μL. A control incubation was included for each compound tested, where 0.1 M phosphate buffer pH 7.4 was added instead of NADPH. The control compounds testosterone and 7-hydroxycoumarin were included in each experiment and all incubations were performed singularly for each compound.
Each compound was incubated for 0, 5, 15, 30, and 45 minutes. The control (minus NADPH) was incubated for 45 minutes only. […] The incubation plates were centrifuged at 2500 rpm for 20 minutes at 4° C. to precipitate the protein.
Following protein precipitation, the sample supernatants were combined in cassettes of up to 4 compounds and analysed using standard LC-MS/MS conditions.
From a plot of the natural logarithm of the peak area ratio (i.e., the ratio of compound peak area:internal standard peak area) against time, the gradient of the line was determined. Subsequently, half-life and intrinsic clearance were calculated using the equations below: Eliminated rate constant (k)=(−gradient). […] Pharmacokinetics Studies
A general note: Liver microsomes are vesicles of endoplasmic reticulum, rich in cytochrome P450 enzymes.

Data set [2] is described as follows: In vivo pharmacokinetics study, oral and intravenous dosing. The conditions noted are these: rat, 1 mg/kg; for half-life / bioavailability: male, Sprague-Dawley, plasma; for bioavailability: oral. The procedure:
Absorption and metabolic stability were studied using an in vivo pharmacokinetics assay. Drug levels were assessed using ultra-performance LC/TOF-MS.
Three male Sprague-Dawley rats, 200-300 g, were dosed per route. Test compound was administered either orally or intravenously (dose level of 1 mg/kg body weight). Test compound was formulated in 50:50 tetraethylene glycol:PBS for both routes. Animals were given free access to food throughout the study. On the day prior to dosing, the carotid artery was cannulated for sample collection and for the intravenous study the jugular vein was cannulated to enable dosing.
Blood samples were taken from the carotid artery at the following time points and placed in heparinised tubes: • Oral dosing—predose, 0.25, 0.5, 1, 2, 4, 8 and 24 hours post dose. • IV dosing—predose, 0.08, 0.25, 0.5, 1, 2, 4 and 8 hours post dose.
Blood samples were centrifuged to obtain plasma, which was transferred to a separate container and frozen at −20° C.
The supernatants were collected for analysis. The standard samples were prepared similarly, after spiking blank rat plasma samples to study compound concentrations at 1, 2, 5, 10, 20, 50, 100, 200, 500 and 1000 ng/mL. In addition, extra samples were prepared from 0-1 hour i.v. samples by diluting 1/20 with 50% aqueous acetonitrile to avoid exceeding the linear range of the analytical method.
A Waters Acquity liquid ultra-performance chromatographic system (Waters Corp., Milford, Mass., USA) with autosampler, vacuum degasser and column oven was used. The analytical column used for all compounds was a Waters BEH C18, (2.1×50 mm, 1.7 μm, Waters Corp, Milford, Mass., USA) together with a 0.2 μm on-line filter before the column. The eluents were 0.1% acetic acid (A, pH 3.2) and methanol (B). Gradient elution from 5% to 60% B in two minutes was employed, followed by one minute gradient to 90% B and column equilibration. The flow rate was 0.5 mL/min and the column oven temperature was 35° C. The flow was directed to the MS via Water Acquity photo-diode-array (PDA) detector. LC/TOF-MS data were recorded with a Micromass LCT Premier XE time-of-flight (TOF) mass spectrometer (Micromass Ltd., Manchester, England) equipped with a LockSpray electrospray ionization source. A positive ionization mode of electrospray was used for all compounds. The mass range of m/z 100-900 was acquired. The W-option of the reflector was used, and the DRE (dynamic range enhancement) option was set to on. The mass spectrometer and HPLC system were operated under Micromass MassLynx 4.1 software. […] Masslynx 4.1 software was used for controlling the instrumentation and for data processing.
The pharmacokinetic parameters for the test compounds were calculated by WinNonlin Pro (Pharsight Corp, CA) using standard noncompartmental methods. The elimination phase half-life (t1/2) was calculated by least-squares regression analysis of the terminal linear part of the log concentration—time curve. The area under the plasma concentration—time curve (AUC) was determined by use of the linear trapezoidal rule up to the last measurable concentration and thereafter by extrapolation of the terminal elimination phase to infinity.

A short description of data set [3]: Thermodynamic aqueous solubility in fasted state simulated intestinal fluid (FaSSIF). Particulars: pH 6.5, thermodynamic from solid, equilibrated at 25° C. for 24 hours, HPLC. The format is physicochemical.

≈ marks a conversion by molar mass, not a printed value.

What is called half-life is the time in which the quantity being followed falls by half. Lower therefore signals rapid decline. Usually bioavailability stands for dose-corrected exposure relative to a reference, in per cent. Higher therefore signals good availability. What is called solubility is the concentration that dissolves in the medium under given conditions. A low value points to little dissolved substance. As for `O=S(=O)(N[C@H]1CC[C@@H](CO)C1)c1ccc(-c2ccc(F)cc2F)cc1` [ABD773, 2′,4′-Difluoro-N-((1 S,3R)-3-(hydroxymethyl)cyclopentyl)biphenyl-4-sulfonamide], the half-life at 3 µM in data set [1] is 54 min. Moreover, the half-life in data set [2] (iv) is 48.6 min; in data set [2] (po), 190 min. In data set [2], this molecule came in with a bioavailability of 13%. For the same molecule, the figures for the AUC in data set [2] (i.v.) and in data set [2] (p.o.) were 11900 ng/mL/min and 1500 ng/mL/min, respectively. In data set [3], this molecule returned a solubility at 24 h of 890 µg/mL (≈ 2420 µM).
Regarding `O=S(=O)(N[C@H]1CC[C@@H](CO)CC1)c1ccc(-c2ccc(F)cc2F)cc1` [ABD781, 2′,4′-Difluoro-N-(cis-4-(hydroxymethyl)cyclohexyl)biphenyl-4-sulfonamide], the half-life at 3 µM in data set [1] stood at 41 min. In addition, the figures for the half-life in data set [2] (iv) and in data set [2] (po) were 52.2 min and 197 min, respectively. In data set [2], this molecule yielded a bioavailability of 43%. The AUC in data set [2] (i.v.) amounted to 22400 ng/mL/min; in data set [2] (p.o.), 9600 ng/mL/min. The molecule further returned a solubility at 24 h in data set [3] of 590 µg/mL (≈ 1550 µM).
